Values joined by “and” are separate entries in the source; they are usually repeats but may differ in a detail not shown here. Equal values may be shown once. Read-outs that look alike come from different tables or passages of the source.
How the values were obtained:
[1] = system: SARS-CoV2 surrogate viral particles; conditions: human cells; cited from earlier work
[2] = molecular target: T1, furin (Homo sapiens, UniProt P09958); assay: Inhibition of furin activity, fluorescent substrate Pyr-RTKR-AMC; assay type: biochemical
T1 construct: made in house
T1 sequence (P09958 108-794): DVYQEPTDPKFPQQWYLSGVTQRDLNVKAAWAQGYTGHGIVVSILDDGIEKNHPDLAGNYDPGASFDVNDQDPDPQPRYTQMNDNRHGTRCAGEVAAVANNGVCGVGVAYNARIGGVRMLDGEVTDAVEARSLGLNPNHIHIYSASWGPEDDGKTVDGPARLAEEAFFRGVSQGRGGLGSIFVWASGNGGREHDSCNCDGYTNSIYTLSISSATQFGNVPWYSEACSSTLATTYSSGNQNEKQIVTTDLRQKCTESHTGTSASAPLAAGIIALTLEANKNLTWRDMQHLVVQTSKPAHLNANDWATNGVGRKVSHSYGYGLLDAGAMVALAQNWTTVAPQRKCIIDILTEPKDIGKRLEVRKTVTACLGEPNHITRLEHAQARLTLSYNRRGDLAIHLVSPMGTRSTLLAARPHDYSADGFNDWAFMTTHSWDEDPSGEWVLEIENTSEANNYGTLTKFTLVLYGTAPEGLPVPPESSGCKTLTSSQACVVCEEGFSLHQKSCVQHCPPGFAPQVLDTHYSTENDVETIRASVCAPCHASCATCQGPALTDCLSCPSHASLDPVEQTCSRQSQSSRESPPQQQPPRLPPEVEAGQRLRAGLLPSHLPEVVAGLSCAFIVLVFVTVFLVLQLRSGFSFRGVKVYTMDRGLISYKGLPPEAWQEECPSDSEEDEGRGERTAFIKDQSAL

[3] = Plasma stability by LCMS; conditions: rat plasma, after 60 min incubation
[4] = Toxicity study, I.P. dosing and blood chemistry
[5] = mouse, in vivo, 30 mg/kg
[6] = physchem; conditions: 25 °C, pH 7.2, aqueous buffer
[7] = in vivo; conditions: mouse
[8] = molecular target: T2, hPC7 (Homo sapiens, UniProt Q16549); assay: Specificity for furin-like PCs: hPC7 inhibition; assay type: biochemical; conditions: Table S2
T2 sequence (Q16549 142-785): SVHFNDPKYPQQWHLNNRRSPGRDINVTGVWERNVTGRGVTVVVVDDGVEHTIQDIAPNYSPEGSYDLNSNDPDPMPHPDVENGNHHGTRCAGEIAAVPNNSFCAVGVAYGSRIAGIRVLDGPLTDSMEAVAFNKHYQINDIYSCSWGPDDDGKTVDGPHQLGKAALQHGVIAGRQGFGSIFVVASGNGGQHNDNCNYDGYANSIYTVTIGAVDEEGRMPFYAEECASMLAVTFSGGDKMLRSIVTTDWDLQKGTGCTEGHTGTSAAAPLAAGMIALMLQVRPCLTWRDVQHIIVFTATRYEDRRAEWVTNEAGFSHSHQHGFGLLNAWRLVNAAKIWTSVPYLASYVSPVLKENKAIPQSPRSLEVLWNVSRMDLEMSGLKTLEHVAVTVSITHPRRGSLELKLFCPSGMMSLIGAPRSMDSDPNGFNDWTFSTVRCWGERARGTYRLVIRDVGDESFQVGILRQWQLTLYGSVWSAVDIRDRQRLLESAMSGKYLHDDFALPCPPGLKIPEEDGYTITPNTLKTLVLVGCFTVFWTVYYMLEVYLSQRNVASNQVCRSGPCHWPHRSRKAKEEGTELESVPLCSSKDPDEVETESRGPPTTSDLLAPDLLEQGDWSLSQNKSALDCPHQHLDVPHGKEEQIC

[9] = molecular target: T3, trypsin from bovine pancreas (Bos taurus, UniProt P00760); assay: Inhibition of trypsin from bovine pancreas; assay type: biochemical; conditions: at 10 µM; trypsin as model enzyme for TMPRSS2
T3 construct: from tissue; host or cells: bovine pancreas
T3 sequence (P00760 24-246): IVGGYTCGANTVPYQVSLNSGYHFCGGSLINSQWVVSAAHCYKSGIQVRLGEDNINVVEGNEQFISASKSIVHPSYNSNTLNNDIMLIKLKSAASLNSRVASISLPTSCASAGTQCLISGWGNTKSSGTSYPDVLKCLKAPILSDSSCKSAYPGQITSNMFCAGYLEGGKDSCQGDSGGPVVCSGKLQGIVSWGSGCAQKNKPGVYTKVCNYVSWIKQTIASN

[10] = system: RAW 264.7 murine monocyte macrophages; assay type: cell-based
[11] = molecular target: T4, hPC2 (Homo sapiens, UniProt P16519); assay: Specificity for furin-like PCs: hPC2 inhibition; assay type: biochemical; conditions: Table S2
T4 sequence (P16519 110-638): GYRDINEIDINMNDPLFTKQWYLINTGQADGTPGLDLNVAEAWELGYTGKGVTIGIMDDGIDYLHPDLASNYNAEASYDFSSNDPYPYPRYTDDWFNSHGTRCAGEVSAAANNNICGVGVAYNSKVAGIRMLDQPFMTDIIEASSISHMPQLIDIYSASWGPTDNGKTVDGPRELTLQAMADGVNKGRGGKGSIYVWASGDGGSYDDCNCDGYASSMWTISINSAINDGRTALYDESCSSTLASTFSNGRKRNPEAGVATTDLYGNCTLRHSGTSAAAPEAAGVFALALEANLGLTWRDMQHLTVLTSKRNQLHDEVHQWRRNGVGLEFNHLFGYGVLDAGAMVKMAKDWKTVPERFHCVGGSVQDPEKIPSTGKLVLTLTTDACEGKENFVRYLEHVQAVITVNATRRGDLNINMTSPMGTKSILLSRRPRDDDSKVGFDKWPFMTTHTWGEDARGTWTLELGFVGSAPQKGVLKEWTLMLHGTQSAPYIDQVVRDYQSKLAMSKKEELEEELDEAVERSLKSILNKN

[12] = molecular target: T5, hPC1/3 (Homo sapiens, UniProt P29120); assay: Inhibition of hPC1/3 activity, fluorescent substrate Pyr-RTKR-AMC; assay type: biochemical
T5 sequence (P29120 111-753): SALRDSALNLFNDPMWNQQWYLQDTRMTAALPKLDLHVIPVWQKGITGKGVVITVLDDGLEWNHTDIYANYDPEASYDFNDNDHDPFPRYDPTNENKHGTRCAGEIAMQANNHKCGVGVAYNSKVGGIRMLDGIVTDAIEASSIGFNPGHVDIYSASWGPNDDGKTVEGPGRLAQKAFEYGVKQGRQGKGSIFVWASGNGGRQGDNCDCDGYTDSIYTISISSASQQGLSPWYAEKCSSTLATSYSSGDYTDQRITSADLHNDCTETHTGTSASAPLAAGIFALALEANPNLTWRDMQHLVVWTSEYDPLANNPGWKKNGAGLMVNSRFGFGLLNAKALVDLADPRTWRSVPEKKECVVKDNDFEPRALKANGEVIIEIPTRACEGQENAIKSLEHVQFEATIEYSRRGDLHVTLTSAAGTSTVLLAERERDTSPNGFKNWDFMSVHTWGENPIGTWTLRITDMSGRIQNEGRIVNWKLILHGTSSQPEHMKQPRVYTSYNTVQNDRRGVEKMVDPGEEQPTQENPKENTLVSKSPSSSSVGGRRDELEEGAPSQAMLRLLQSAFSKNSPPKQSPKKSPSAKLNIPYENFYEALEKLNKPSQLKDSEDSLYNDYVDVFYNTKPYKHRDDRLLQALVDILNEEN

[13] = system: anthrax toxin LF/PA; parameters: species or system Balb/c mice; conditions: mouse, in vivo

SMILES: CN(C)C(=O)COC(=O)Cc1ccc(OC(=O)c2ccc(NC(=N)N)cc2)cc1 [camostat]
- concentrations that attenuated (only partially) entry of SARS-CoV2 surrogate viral particles [1]: 10 to 50 µM
- inhibition of furin (in words) [2]: poor furin inhibitor
- inhibition of furin (in words) ([2]; listed as camostat mesylate): did not appreciably inhibit furin

SMILES: CC(=O)N[C@@H](CCCNC(=N)N)C(=O)N[C@H](C(=O)N[C@@H](Cc1ccc(N=C(N)N)cc1)C(=O)NCc1ccc(C(=N)N)cc1)C(C)C [compound 1]
- plasma stability, intact [3]: > 86%
- other blood chemistry values ([4]; 5 min after single 20 mg/kg injection): normal
- acute toxicity, blood chemistry finding ([4]; 5 min after single 20 mg/kg injection, compared to control group): gross hemolysis
- MTD ([4]; female, Balb/c, mouse, in vivo, ip): ~10 mg/kg
- mice that died ([4]; single dose 15 mg/kg I.P., 1 h after compound administration): all mice
- mice that died ([4]; single dose 20 mg/kg I.P., 15 min after compound injection): 2 out of 3
- absorption after oral administration (in words) [5]: insignificant adsorption
- solubility [6]: > 1000 µM
- bioavailability ([7]; %F I.P./I.V.): ~100%
- bioavailability ([7]; %F P.O./I.V.): < 1%
- AUC ([7]; ip, 3 mg/kg): 2600 ng·h/mL
- AUC ([7]; iv, 1 mg/kg): 870 ng·h/mL
- AUC ([7]; po, 30 mg/kg): 26 ng·h/mL
- IC50 [8]: 11800 nM
- inhibition of trypsin [9]: can inhibit this enzyme
- EC50 protection of RAW macrophages from LF/PA-induced cell death [10]: low micromolar range
- IC50 [11]: 1860 nM
- IC50 [12]: 3 nM
- IC50 [2]: 9 nM
- MST (median survival time) [13]: 31.5 h and 52.5 h
- TTD (time to death) [13]: 48 h and 96 h

Source: publication PMC7287953, “Potential Therapeutic Targeting of Coronavirus Spike Glycoprotein Priming” (Molecules, 2020)
